Source: the supplement of paper PMC10307832

Columns and labels:
Test in all cases: relative viability (nuclei count vs DMSO), 5 days (fraction); higher = more cells survive
[1] = compound: O=C(CCCCCCNC(=O)c1cnc(N(c2ccccc2)c2ccccc2)nc1)NO [Ricolinostat] + O=C(CCCCCCC(=O)Nc1ccccc1)NO [Vorinostat] (partner 1 µM)
Outline: (§1)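 Dosing by pin tool came one day after lung cancer cell lines were seeded in 1536-well plates, using either one drug or a fixed anchor-drug dose plus five library-drug doses (not always all listed) in √10 steps. After 5 days, nuclei were counted on 4× images. Relative viability is treated-well nuclei count divided by vehicle-well nuclei count, and values are medians of duplicate plates.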

TGX 221 + Tozasertib = compound: CC1=CN2C(=O)C=C(N=C2C(=C1)C(C)NC3=CC=CC=C3)N4CCOCC4 [TGX 221] + Cc1cc(Nc2cc(N3CCN(C)CC3)nc(Sc3ccc(NC(=O)C4CC4)cc3)n2)n[nH]1 [Tozasertib] (partner 0.1 µM)
Outline: as §1

[2] = compound: C1=CC=C(C(=C1)C2=CC=C(C=C2)C3=CSC4=C3C(=C(C(=O)N4)C#N)O)O + COc1cc2c(Oc3ccc(NC(=O)C4(C(=O)Nc5ccc(F)cc5)CC4)cc3F)ccnc2cc1OCCCN1CCOCC1 [Foretinib] (partner 0.25 µM)
Outline: as §1

[3] = compound: C1=CC=C(C(=C1)C2=CC=C(C=C2)C3=CSC4=C3C(=C(C(=O)N4)C#N)O)O + CC(C)C[C@H](NC(=O)[C@H](Cc1ccccc1)NC(=O)c1cnccn1)B(O)O [Bortezomib] (partner 0.002 µM)
Outline: as §1

Cell Line | relative viability ([1]; first compound 0.08 µM) | relative viability ([1]; first compound 0.253 µM) | relative viability ([1]; first compound 0.8 µM) | relative viability ([1]; first compound 2.53 µM) | relative viability (TGX 221 + Tozasertib; first compound 0.08 µM) | relative viability (TGX 221 + Tozasertib; first compound 0.253 µM) | relative viability (TGX 221 + Tozasertib; first compound 0.8 µM) | relative viability (TGX 221 + Tozasertib; first compound 2.53 µM) | relative viability (TGX 221 + Tozasertib; first compound 8 µM) | relative viability ([2]; first compound 0.08 µM) | relative viability ([2]; first compound 0.253 µM) | relative viability ([2]; first compound 0.8 µM) | relative viability ([2]; first compound 2.53 µM) | relative viability ([2]; first compound 8 µM) | relative viability ([3]; first compound 0.08 µM) | relative viability ([3]; first compound 0.253 µM) | relative viability ([3]; first compound 0.8 µM) | relative viability ([3]; first compound 2.53 µM) | relative viability ([3]; first compound 8 µM)
LU99A | 0.513 | 0.473 | 0.462 | 0.326 | 0.24 | 0.274 | 0.258 | 0.282 | 0.276 | 0.89 | 0.86 | 0.754 | 0.83 | 0.797 | 1.26 | 1.03 | 1.43 | 1.14 | 1
LXF-289 | 0.697 | 0.723 | 0.681 | 0.483 | 0.215 | 0.235 | 0.201 | 0.202 | 0.114 | 0.999 | 0.959 | 0.993 | 1.05 | 1.04 | 0.974 | 0.973 | 1 | 1 | 0.986
NCI-H23 | 0.426 | 0.586 | 0.407 | 0.342 | 0.461 | 0.393 | 0.386 | 0.322 | 0.241 | 0.906 | 1.04 | 1.19 | 1.05 | 0.896 | 0.884 | 1.11 | 1.19 | 1.07 | 0.558
NCI-H322M | 0.621 | 0.834 | 0.827 | 0.804 | 0.513 | 0.468 | 0.446 | 0.442 | 0.44 | 1.01 | 1.02 | 0.935 | 1.02 | 0.954 | 1.13 | 1.22 | 1.24 | 1.34 | 1.11
NCI-H441 | 0.735 | 0.76 | 0.643 | 0.54 | 0.605 | 0.569 | 0.737 | 0.611 | 0.695 | 1.07 | 1.15 | 1 | 1.27 | 0.976 |  | 0.534 |  | 0.757 | 0.441
NCI-H460 | 0.594 | 0.677 | 0.573 | 0.194 | 0.383 | 0.489 | 0.639 | 0.0964 | 0.131 | 1.18 | 1.11 | 0.972 | 1 | 0.569 |  | 0.828 | 1.34 | 1.41 | 0.624
NCI-H520 |  | 0.659 | 0.629 | 0.532 | 0.469 | 0.385 | 0.382 | 0.304 | 0.303 | 0.515 | 0.711 | 0.835 | 0.848 | 0.627 | 0.496 | 0.494 | 0.903 | 0.506 | 0.492
NCI-H596 | 0.61 | 0.645 | 0.567 | 0.432 | 0.94 | 0.944 | 0.91 | 0.864 | 0.61 | 1.01 | 0.783 | 0.79 | 1.03 | 0.824 | 0.715 | 1.63 | 1.2 | 0.926 | 0.933
NCI-H647 | 0.562 | 0.464 | 0.52 | 0.441 | 0.284 | 0.219 | 0.312 | 0.285 | 0.122 | 1.21 | 1.22 | 1.32 | 1.41 | 0.963 | 1.01 | 1.16 | 1.09 | 0.919 | 0.649
NCI-H650 | 0.355 | 0.434 | 0.367 | 0.296 | 0.665 | 0.639 | 0.665 | 0.712 | 0.596 | 1.11 | 1.07 | 0.952 | 1.04 | 1.05 | 0.583 | 0.833 | 0.772 | 0.936 | 0.617
NCI-H661 | 0.68 | 0.716 | 0.722 | 0.558 | 0.348 | 0.371 | 0.392 | 0.358 | 0.373 | 1.3 | 1.06 | 0.898 | 1.02 | 0.99 | 1.05 | 0.71 | 0.697 | 0.678 | 0.718
NCI-H727 | 1.13 | 1.15 | 1.08 | 0.936 | 0.543 | 0.64 | 0.65 | 0.571 | 0.542 | 1.26 | 0.97 | 1.27 | 0.789 | 0.843 | 0.643 | 1.18 | 0.986 | 0.714 | 0.747
NCI-H838 | 0.725 | 0.689 | 0.582 | 0.315 | 0.276 | 0.257 | 0.282 | 0.247 | 0.192 | 1.06 | 0.981 | 1.05 | 0.954 | 0.91 | 0.776 | 0.816 | 1.03 | 0.715 | 0.634
NCI-H1355 | 0.64 | 0.627 | 0.619 | 0.533 | 0.541 | 0.564 | 0.621 | 0.483 | 0.382 | 0.895 | 1.01 | 1.12 | 0.951 | 0.703 | 0.981 | 1.31 | 1.25 | 1.12 | 1.19
NCI-H1437 | 0.853 | 0.712 | 0.611 | 0.426 | 0.383 | 0.406 | 0.404 | 0.361 | 0.311 | 1.24 | 1.32 | 1.36 | 1.37 | 1.1 | 0.539 | 0.665 | 0.603 | 0.406 | 0.322
NCI-H1650 | 0.544 | 0.535 | 0.485 | 0.372 | 0.399 | 0.412 | 0.381 | 0.297 | 0.235 | 0.795 | 1.52 | 1.31 | 1.22 | 0.935 |  | 0.241 | 0.228 | 0.207 | 0.207
NCI-H1651 | 0.459 | 0.594 | 0.411 | 0.395 | 0.602 | 0.649 | 0.696 | 0.566 | 0.418 | 0.848 | 0.774 | 0.924 | 0.76 | 0.714 | 0.866 | 0.914 | 1.01 | 1.02 | 0.834
NCI-H1666 | 0.933 | 1.01 | 1.01 | 0.847 | 0.6 | 0.591 | 0.6 | 0.576 | 0.538 | 1 | 0.976 | 0.95 | 1.01 | 0.916 | 0.849 | 0.838 | 0.693 | 0.904 | 0.782
NCI-H1734 | 0.725 | 0.891 | 0.702 | 0.67 | 0.247 | 0.247 | 0.263 | 0.263 | 0.271 | 0.783 | 0.803 | 0.899 | 0.971 | 0.738 | 0.852 | 0.787 | 1.04 | 0.924 | 0.545
NCI-H1755 | 0.665 | 0.715 | 0.673 | 0.484 | 0.522 | 0.499 | 0.521 | 0.538 | 0.428 | 0.966 | 0.924 | 0.89 | 0.929 | 0.95 | 0.954 | 1.04 | 0.872 | 0.978 | 0.814
NCI-H1915 | 0.468 | 0.51 | 0.467 | 0.326 | 0.399 | 0.406 | 0.422 | 0.389 | 0.377 | 1.12 | 1.24 |  | 1.08 | 0.747 | 0.768 | 0.993 | 1.06 | 1.11 | 0.831
NCI-H1975 | 0.655 | 0.671 | 0.566 | 0.609 | 0.759 | 0.685 | 0.761 | 0.569 | 0.382 | 0.889 | 0.822 | 0.967 | 1 | 0.84 | 0.357 | 0.348 | 0.436 | 0.41 | 0.343
NCI-H1993 | 0.551 | 0.825 | 0.693 |  | 0.498 | 0.53 | 0.553 | 0.482 | 0.572 | 0.67 | 0.52 | 0.765 | 0.76 | 0.723 | 1.03 | 1.08 | 1.08 | 1.14 | 0.979
NCI-H2009 | 0.614 | 0.68 | 0.711 | 0.53 | 0.739 | 0.714 | 0.73 | 0.631 | 0.436 | 1.18 | 1.24 | 1.3 | 1.28 | 1.19 | 1.07 | 1.05 | 0.827 | 0.967 | 0.832
NCI-H2023 | 0.511 | 0.544 | 0.47 | 0.369 | 0.332 | 0.297 | 0.397 | 0.302 | 0.145 | 0.838 | 0.939 | 0.763 | 0.903 | 0.76 | 1.16 | 1.03 | 0.637 | 0.887 | 0.908
NCI-H2085 |  | 0.751 | 0.731 | 0.631 | 0.792 | 0.729 | 0.598 | 0.541 | 0.427 | 1.05 | 0.9 | 0.958 | 0.852 | 0.797 | 0.919 | 1.26 | 1.01 | 0.952 | 0.992
NCI-H2087 | 0.398 | 0.42 | 0.728 | 0.193 | 0.254 | 0.269 | 0.231 | 0.217 | 0.233 | 1.35 | 1.27 | 1.06 | 1.11 | 0.792 | 0.609 | 1 | 0.796 | 0.833 | 0.899
NCI-H2126 | 0.456 | 0.796 | 0.684 | 0.485 | 0.826 | 0.886 | 0.797 | 0.768 | 0.756 | 1.41 | 1.22 | 1.43 | 1.15 | 1.01 | 1.06 | 1.13 | 1.18 | 1.21 | 1.22
